Data reported in publication PMC7248098, “Biochemical characterization and inhibition of the alternative oxidase enzyme from the fungal phytopathogen Moniliophthora perniciosa” (Communications Biology, 2020).
Several values for one entry are separate records, joined by “and”; a condition that tells them apart may be missing. Identical values can stand only once.

Assays:
Type in all cases: biochemical
membrane-bound rMpAOX [1] = biological target: T1, membrane-bound rMpAOX (Moniliophthora perniciosa, UniProt A8QJP8); assay: Membrane-bound rMpAOX activity with putative activators (O2 uptake, oxygraph; dose-response); conditions: single independent measurements (Fig1a); for Fold-change in membrane-bound rMpAOX O2 uptake: 1 mM each; for fold induction at 1000 µM: pH 7.5, 1 mM each, read-out: Fold-change in membrane-bound rMpAOX O2 uptake
T1 sequence (A8QJP8 entry or part of it): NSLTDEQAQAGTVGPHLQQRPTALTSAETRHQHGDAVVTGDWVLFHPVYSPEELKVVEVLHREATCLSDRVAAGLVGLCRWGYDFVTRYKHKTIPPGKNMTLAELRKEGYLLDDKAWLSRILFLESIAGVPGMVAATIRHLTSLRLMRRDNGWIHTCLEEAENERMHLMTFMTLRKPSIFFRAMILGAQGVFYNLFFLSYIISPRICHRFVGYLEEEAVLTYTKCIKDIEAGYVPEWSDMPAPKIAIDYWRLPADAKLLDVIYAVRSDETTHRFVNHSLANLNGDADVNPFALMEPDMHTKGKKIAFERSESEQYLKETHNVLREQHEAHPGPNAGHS
Description: (§1) E. coli membrane preparation was performed as described with minor modifications. […] The cells were disrupted using two passes at […] through a pre-cooled Constant cell disruption system (Constant Systems Ltd). The lysate was centrifuged for 15 min at 16,000 rcf, and the pelleted unbroken cells and large cell debris were discarded. The supernatant was centrifuged for 90 min at 200,000 rcf to collect the fragmented membranes.
(§2) Respiration rates were recorded before and after the addition of putative AOX activators, such as 5′-ADP, 5′-AMP, 5′-GDP, 5′-GMP, glyoxylate, oxaloacetate, pyruvate or succinate (1 mM each unless stated otherwise). […] Data were acquired with the Multiskan FC Microplate Photometer (ThermoFisher). […] Absorbance readings were taken periodically and a blank reactions (substrate without enzyme) were included in every assay and were used to determine and subtract the autoxidation rate (background). Proteoliposomes were assayed as described for the E. coli membrane fraction except that no KCN was included and 0.5 µL of the prep (~50 ng rMpAOX) were added into the reaction. When tested, inhibitors were preincubated with the enzyme in reaction buffer for 2–5 min before starting the reaction by the addition of substrate. The path length (i.e., the height of the reaction medium inside the well) was calculated based on the reaction volume and the well cross-section area informed by the supplier. GraphPad Prism 7.0 (GraphPad Software Inc.) was used for function fitting.

purified rMpAOX = purified rMpAOX (Moniliophthora perniciosa, UniProt A8QJP8); assay: Purified (detergent-solubilised) rMpAOX, Q1H2 oxidation; conditions: for Activity: [Q1H2]
Chain of purified rMpAOX (A8QJP8 entry or part of it): as above
Description: The E. coli membrane fraction was resuspended with 50 mM Tris-HCl pH 7.5, 20% glycerol, 200 mM MgSO4 and 1% Fos-Choline-12 (FC-12) instead of MOPS buffer. The sample was left under gentle rocking for 1 h at 4 °C, after which it was centrifuged at 200,000 rcf for 30 min. […] T. Elthon, Nebraska, USA. Protein content was estimated through the Bradford method[63] and bovine serum albumin as standard.
as §2

[2] = biological target: rMpAOX incorporated into proteoliposomes (Moniliophthora perniciosa, UniProt A8QJP8); assay: rMpAOX incorporated into proteoliposomes with Q10 and NDH-2 (NADH oxidation); conditions: for Km / VMax: substrate ubiquinol-10 in proteoliposomes, ~50 ng rMpAOX, 300 µM NADH
Chain of rMpAOX incorporated into proteoliposomes (A8QJP8 entry or part of it): as above
Description: Proteoliposomes (PL) were prepared as previously described[44],[45], except that NDH-2 was used instead of complex I and 0.5% DDM was used instead of OG. […] For kinetic studies, PLs were prepared with 50 µg rMpAOX and no NDH-2—in this case, pure NDH-2 was added directly into the enzymatic reaction mixture at a saturating concentration. Briefly, lipids and Q10 stocks in chloroform were mixed in a glass vial and the chloroform dried under a nitrogen stream. The lipids were hydrated and extruded through a 100 nm NanoSizer MINI Liposome Extruder (T&T Scientific) followed by the addition of protein. After treatment with the Bio-Beads SM-2 Resin (Bio-Rad), proteolipososmes were harvested by ultracentrifugation and resuspended in 150 µL of buffer. Enzymatic assays were performed on the same day.
as §2

membrane-bound rMpAOX [3] = biological target: T1, membrane-bound rMpAOX; assay: Dose-response assay of inhibitors with membrane-bound, GMP-activated rMpAOX (NADH oxidation); conditions: for Fractional velocity, %: log[I]
Description: as §1, §2

[4] = substrate ubiquinol-1, 0.0125% C12E8, 100 ng rMpAOX

O=C(O)CC(=O)C(=O)O [OXAL, oxaloacetate]
Fold-change in membrane-bound rMpAOX O2 uptake (membrane-bound rMpAOX [1]; 1000 µM): 0.932 and 1.186
fold induction at 1000 µM (membrane-bound rMpAOX [1]): 0.847

CC(=O)C(=O)O [PYR, pyruvate]
Fold-change in membrane-bound rMpAOX O2 uptake (membrane-bound rMpAOX [1]; 1000 µM): 0.7655 and 0.9453
fold induction at 1000 µM (membrane-bound rMpAOX [1]): 0.681

COc1c(O)c(C)c(CC=C(C)C)c(O)c1OC [Q1H2, ubiquinol-1]
Oxidation rate (purified rMpAOX; 180 µM Q1H2): 0.36 µmol/min/mg
Activity (purified rMpAOX; M 4.29 (Fig3c, mean)): 25.2546 nmol/min/mg
Activity (purified rMpAOX; M 6.87 (Fig3c, mean)): 30.5181 nmol/min/mg
Activity (purified rMpAOX; M 10.99 (Fig3c, mean)): 60.7997 nmol/min/mg
Activity (purified rMpAOX; M 17.58 (Fig3c, mean)): 87.5414 nmol/min/mg
Activity (purified rMpAOX; M 28.12 (Fig3c, mean)): 145.463 nmol/min/mg
Activity (purified rMpAOX; M 45 (Fig3c, mean)): 202.371 nmol/min/mg
Activity (purified rMpAOX; M 71.99 (Fig3c, mean)): 274.627 nmol/min/mg
Activity (purified rMpAOX; M 115.19 (Fig3c, mean)): 327.356 nmol/min/mg
Activity (purified rMpAOX; M 184.3 (Fig3c, mean)): 355.622 nmol/min/mg
Km (purified rMpAOX; [4]): 68.5 µM
VMax (purified rMpAOX; [4]): 504.1 nmol Q1 min^−1 mg^−1 and 504.1 ± 28.7 nmol Q1 min^−1 mg^−1

COc1c(O)c(C)c(C/C=C(\C)CC/C=C(\C)CC/C=C(\C)CC/C=C(\C)CC/C=C(\C)CC/C=C(\C)CC/C=C(\C)CC/C=C(\C)CC/C=C(\C)CCC=C(C)C)c(O)c1OC [Q10H2, ubiquinol-10]
rMpAOX catalytic rate ([2]; 180 µM Q10H2 in the phospholipid membrane, calculated from KM and VMax): 9.3 µmol/min/mg
Km [2]: 960 ± 760 µM
VMax [2]: 59.4 ± 6.6 µmol Q10 min^−1 mg^−1

COC1=C(OC)C(=O)C(C/C=C(\C)CC/C=C(\C)CC/C=C(\C)CC/C=C(\C)CC/C=C(\C)CC/C=C(\C)CC/C=C(\C)CC/C=C(\C)CC/C=C(\C)CCC=C(C)C)=C(C)C1=O [Q10]
Km [2]: 960 ± 760 µM
VMax [2]: 59.4 µmol Q10 min^−1 mg^−1 and 59.4 ± 6.6 µmol Q10 min^−1 mg^−1

O=C(NO)c1ccccc1O [SHAM, salicylhydroxamic acid]
Fractional velocity, % (membrane-bound rMpAOX [3]; M -4.60206 (Fig2b), 25 µM): 95.8272% and 90.1105%
Fractional velocity, % (membrane-bound rMpAOX [3]; M -5.60206 (Fig2b), 2.5 µM): 96.6342% and 84.7725%
Fractional velocity, % (membrane-bound rMpAOX [3]; M -6.60206 (Fig2b), 0.25 µM): 99.0344% and 87.1837%
Fractional velocity, % (membrane-bound rMpAOX [3]; M -7.60206 (Fig2b), 0.025 µM): 97.5117% and 94.5942%
Fractional velocity, % (membrane-bound rMpAOX [3]; M -8.60206 (Fig2b), 0.0025 µM): 99.3055% and 95.1323%
Fractional velocity, % (membrane-bound rMpAOX [3]; M -9.60206 (Fig2b), 0.00025 µM): 99.8162% and 99.1897%
Fractional velocity, % (membrane-bound rMpAOX [3]; M -10.6021 (Fig2b), 25 pM): 99.1867% and 91.0587%
activity at 25 µM (membrane-bound rMpAOX [3]; read-out: Fractional velocity, %, log[I], M -4.60206 (Fig2b)): 96.4%
activity at 2.5 µM (membrane-bound rMpAOX [3]; read-out: Fractional velocity, %, log[I], M -5.60206 (Fig2b)): 98%
activity at 0.25 µM (membrane-bound rMpAOX [3]; read-out: Fractional velocity, %, log[I], M -6.60206 (Fig2b)): 96.1%
activity at 0.025 µM (membrane-bound rMpAOX [3]; read-out: Fractional velocity, %, log[I], M -7.60206 (Fig2b)): 95.6%
activity at 0.0025 µM (membrane-bound rMpAOX [3]; read-out: Fractional velocity, %, log[I], M -8.60206 (Fig2b)): 94.9%
activity at 0.00025 µM (membrane-bound rMpAOX [3]; read-out: Fractional velocity, %, log[I], M -9.60206 (Fig2b)): 93.7%
activity at 25 pM (membrane-bound rMpAOX [3]; read-out: Fractional velocity, %, log[I], M -10.6021 (Fig2b)): 88.7%
Effect on membrane-bound rMpAOX (membrane-bound rMpAOX [3]; up to the maximal tested concentration of 25 µM): did not exert any effect

O=C(O)CCC(=O)O [SUCC, succinate]
Fold-change in membrane-bound rMpAOX O2 uptake (membrane-bound rMpAOX [1]): 1.198 and 0.7995 and 1.017
